We go through two molecules from publication PMC10412597, “Small molecule branched-chain ketoacid dehydrogenase kinase (BDK) inhibitors with opposing effects on BDK protein levels” (Nature Communications, 2023).

One assay addresses T1, Choline Transporter (Homo sapiens, UniProt Q9GZV3).
T1 construct: gene SLC5A7
More on the design: Cerep Bioprint off-target panel, ligand binding inhibition. The conditions noted are these: binder. As for the experimental part: (§1) To discover a potent and selective BDK inhibitor, a subset of the Pfizer compound collection was screened. […] Off target activity was assessed in both CEREP and kinase panels (Supplementary Tables 2, 3).

A further assay concerns the target T2, Glucocorticoid Receptor (Homo sapiens, UniProt P04150).
T2 construct: gene NR3C1
More on the design: Cerep Bioprint off-target panel, ligand binding inhibition. The conditions noted are these: binder. As for the experimental part:
as §1

Assay [1] addresses T3, Nicotinic Acetylcholine Receptor (alpha4, beta2 subunit containing) (Homo sapiens, UniProt P17787+P43681).
T3 construct: gene CHRNB2
Further details: Cerep Bioprint off-target panel, ligand binding inhibition. The conditions noted are these: binder. The protocol: as §1

For assay [2], the target named is T4, PPAR-gamma (Homo sapiens, UniProt P37231).
T4 construct: gene PPARG
T4 sequence (P37231 1-505): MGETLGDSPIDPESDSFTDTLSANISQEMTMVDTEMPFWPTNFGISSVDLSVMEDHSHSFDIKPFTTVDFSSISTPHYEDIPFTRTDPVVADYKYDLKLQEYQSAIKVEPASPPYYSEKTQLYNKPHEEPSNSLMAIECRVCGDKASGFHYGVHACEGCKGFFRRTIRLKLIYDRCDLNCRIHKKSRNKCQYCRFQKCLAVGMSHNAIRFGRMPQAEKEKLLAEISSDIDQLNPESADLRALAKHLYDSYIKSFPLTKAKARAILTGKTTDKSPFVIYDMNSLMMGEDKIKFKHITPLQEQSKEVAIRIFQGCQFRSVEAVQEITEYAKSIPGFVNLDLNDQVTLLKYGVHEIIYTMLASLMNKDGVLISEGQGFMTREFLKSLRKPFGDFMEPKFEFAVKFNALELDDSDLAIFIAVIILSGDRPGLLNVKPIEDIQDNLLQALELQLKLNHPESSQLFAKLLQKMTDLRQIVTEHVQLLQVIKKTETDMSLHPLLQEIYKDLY
Further details: Cerep Bioprint off-target panel, ligand binding inhibition. Particulars: binder. As for the experimental part:
as §1

The target of a further assay is T5, Serotonin Transporter (Homo sapiens, UniProt P31645).
T5 construct: gene SLC6A4
More on the design: Cerep Bioprint off-target panel, ligand binding inhibition. Particulars: binder. As for the experimental part: as §1

Assay [3] deals with T4, PPAR-gamma. The assay can be described thus: biochemical. Further details: Cerep Bioprint off-target panel, ligand binding inhibition. As for the experimental part: as §1
A further assay concerns the target T6, AURKA (Homo sapiens, UniProt O14965).
T6 sequence (O14965 1-403): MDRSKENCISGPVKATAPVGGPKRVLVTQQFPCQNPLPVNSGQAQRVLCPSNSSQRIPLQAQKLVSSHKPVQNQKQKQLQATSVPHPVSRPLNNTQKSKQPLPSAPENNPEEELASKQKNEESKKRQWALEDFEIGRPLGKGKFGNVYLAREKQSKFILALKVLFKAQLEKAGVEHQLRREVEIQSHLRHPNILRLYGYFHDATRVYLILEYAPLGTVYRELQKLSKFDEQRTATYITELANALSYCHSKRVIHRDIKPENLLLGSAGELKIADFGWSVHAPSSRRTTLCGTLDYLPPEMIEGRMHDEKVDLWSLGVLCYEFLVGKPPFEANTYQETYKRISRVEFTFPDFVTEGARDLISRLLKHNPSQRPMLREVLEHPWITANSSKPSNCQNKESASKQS
More on the design: Invitrogen kinase panel, per cent inhibition of kinase activity. The conditions noted are these: 10 µM, inhibitor. The protocol:
as §1

Another assay addresses AURKB (Homo sapiens, UniProt Q96GD4). Further details: Invitrogen kinase panel, per cent inhibition of kinase activity. The conditions noted are these: 10 µM, inhibitor. The procedure, abridged: (§2)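 Activity was measured in a kinase selectivity panel. The data come from off-target testing of the same BDK inhibitors.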
Assay [4] has as its target T7, Epidermal Growth Factor Receptor (Homo sapiens, UniProt P00533).
T7 construct: gene EGFR
More on the design: Invitrogen kinase panel, per cent inhibition of kinase activity. The conditions noted are these: 10 µM, inhibitor. As for the experimental part: as §1

The target of the next assay is NTRK1 (Homo sapiens, UniProt P04629). Further details: Invitrogen kinase panel, per cent inhibition of kinase activity. Particulars: 10 µM, inhibitor. As for the experimental part:
as §1

The target of a further assay is NUAK1 (Homo sapiens, UniProt O60285). Further details: Invitrogen kinase panel, per cent inhibition of kinase activity. Particulars: 10 µM, inhibitor. The procedure, abridged:
as §2

The target in a further assay is PAK4 (Homo sapiens, UniProt O96013). More on the design: Invitrogen kinase panel, per cent inhibition of kinase activity. Particulars: 10 µM, inhibitor. As for the experimental part:
as §1

The target of another assay is PIK3C2B (Homo sapiens, UniProt O00750). More on the design: Invitrogen kinase panel, per cent inhibition of kinase activity. The conditions noted are these: inhibitor. As for the experimental part: as §1
The target of the next assay is PRKACA (Homo sapiens, UniProt P17612). Further details: Invitrogen kinase panel, per cent inhibition of kinase activity. The conditions noted are these: 10 µM, inhibitor. As for the experimental part:
as §1

For the next assay, the target named is T8, STK3 (Homo sapiens, UniProt Q13188).
T8 sequence (Q13188 1-491): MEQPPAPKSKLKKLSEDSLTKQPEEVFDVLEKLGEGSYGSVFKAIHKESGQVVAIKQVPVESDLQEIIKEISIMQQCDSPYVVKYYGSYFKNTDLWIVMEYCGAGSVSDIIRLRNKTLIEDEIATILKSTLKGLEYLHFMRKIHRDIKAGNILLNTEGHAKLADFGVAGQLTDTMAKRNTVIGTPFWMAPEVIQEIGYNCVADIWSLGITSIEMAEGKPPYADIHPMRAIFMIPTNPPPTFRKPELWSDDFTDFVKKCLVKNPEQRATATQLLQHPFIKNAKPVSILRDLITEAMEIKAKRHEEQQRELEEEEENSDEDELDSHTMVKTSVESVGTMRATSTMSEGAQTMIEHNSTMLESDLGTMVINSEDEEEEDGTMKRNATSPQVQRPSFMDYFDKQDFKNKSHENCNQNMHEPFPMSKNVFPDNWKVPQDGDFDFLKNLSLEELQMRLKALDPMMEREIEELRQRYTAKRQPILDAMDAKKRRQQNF
Further details: Invitrogen kinase panel, per cent inhibition of kinase activity. Particulars: 10 µM, inhibitor. As for the experimental part:
as §1

The term IC50 denotes the concentration that inhibits the measured activity by half.

Where two headings read alike, the source gives them in different places.

T7 sequence (P00533 whole entry): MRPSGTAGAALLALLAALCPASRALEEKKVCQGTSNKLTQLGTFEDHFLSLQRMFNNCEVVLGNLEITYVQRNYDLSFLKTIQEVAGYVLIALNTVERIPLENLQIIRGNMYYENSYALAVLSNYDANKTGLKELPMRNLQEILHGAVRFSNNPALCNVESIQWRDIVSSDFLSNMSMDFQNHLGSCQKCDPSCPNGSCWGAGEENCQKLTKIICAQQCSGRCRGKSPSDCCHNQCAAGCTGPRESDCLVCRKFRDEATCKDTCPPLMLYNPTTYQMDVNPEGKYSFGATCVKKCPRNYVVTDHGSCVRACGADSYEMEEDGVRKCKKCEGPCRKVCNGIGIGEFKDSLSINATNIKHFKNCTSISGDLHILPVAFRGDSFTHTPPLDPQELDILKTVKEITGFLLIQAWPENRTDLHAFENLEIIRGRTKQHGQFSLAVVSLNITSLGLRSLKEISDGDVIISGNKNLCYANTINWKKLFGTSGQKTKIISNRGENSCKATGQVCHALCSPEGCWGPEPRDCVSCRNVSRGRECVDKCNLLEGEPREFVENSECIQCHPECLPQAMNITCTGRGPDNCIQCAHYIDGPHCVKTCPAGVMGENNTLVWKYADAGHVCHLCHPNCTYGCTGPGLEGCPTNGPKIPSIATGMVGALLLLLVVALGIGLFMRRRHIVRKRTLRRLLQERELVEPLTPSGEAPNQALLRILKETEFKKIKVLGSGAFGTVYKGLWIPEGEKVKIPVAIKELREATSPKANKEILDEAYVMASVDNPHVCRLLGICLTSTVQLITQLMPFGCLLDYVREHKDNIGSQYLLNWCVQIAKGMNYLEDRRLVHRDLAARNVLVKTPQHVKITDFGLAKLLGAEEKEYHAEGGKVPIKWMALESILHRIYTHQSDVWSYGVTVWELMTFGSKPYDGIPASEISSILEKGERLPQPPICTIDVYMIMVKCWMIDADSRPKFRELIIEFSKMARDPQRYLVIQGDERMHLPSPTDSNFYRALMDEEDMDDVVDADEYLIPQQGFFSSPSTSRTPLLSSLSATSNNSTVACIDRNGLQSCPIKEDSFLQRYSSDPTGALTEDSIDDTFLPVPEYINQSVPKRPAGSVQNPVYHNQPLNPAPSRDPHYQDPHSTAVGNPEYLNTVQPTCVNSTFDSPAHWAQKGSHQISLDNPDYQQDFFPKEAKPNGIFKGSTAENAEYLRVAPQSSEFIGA
Chain of NTRK1 (P04629 whole entry): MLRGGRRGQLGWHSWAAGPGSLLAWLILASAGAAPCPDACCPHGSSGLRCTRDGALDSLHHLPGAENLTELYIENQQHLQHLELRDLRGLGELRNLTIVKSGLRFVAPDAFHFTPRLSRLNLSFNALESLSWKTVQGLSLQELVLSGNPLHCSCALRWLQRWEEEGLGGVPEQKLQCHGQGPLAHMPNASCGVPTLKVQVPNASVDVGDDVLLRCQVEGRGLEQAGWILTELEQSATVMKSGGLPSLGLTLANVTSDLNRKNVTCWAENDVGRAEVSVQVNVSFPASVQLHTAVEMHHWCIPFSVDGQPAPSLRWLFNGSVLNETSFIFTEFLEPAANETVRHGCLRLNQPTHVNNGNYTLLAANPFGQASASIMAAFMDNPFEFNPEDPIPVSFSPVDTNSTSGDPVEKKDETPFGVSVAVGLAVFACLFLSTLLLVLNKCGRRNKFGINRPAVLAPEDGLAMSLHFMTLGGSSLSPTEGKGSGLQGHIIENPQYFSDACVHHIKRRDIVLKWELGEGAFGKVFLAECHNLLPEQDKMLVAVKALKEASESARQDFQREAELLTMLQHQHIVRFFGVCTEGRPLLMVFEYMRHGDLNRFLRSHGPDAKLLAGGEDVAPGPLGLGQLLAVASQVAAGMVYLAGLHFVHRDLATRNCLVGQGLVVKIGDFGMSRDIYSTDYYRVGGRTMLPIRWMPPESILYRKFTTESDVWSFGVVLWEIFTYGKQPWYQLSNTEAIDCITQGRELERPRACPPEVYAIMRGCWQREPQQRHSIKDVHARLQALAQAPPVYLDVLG
Chain of PAK4 (O96013 whole entry): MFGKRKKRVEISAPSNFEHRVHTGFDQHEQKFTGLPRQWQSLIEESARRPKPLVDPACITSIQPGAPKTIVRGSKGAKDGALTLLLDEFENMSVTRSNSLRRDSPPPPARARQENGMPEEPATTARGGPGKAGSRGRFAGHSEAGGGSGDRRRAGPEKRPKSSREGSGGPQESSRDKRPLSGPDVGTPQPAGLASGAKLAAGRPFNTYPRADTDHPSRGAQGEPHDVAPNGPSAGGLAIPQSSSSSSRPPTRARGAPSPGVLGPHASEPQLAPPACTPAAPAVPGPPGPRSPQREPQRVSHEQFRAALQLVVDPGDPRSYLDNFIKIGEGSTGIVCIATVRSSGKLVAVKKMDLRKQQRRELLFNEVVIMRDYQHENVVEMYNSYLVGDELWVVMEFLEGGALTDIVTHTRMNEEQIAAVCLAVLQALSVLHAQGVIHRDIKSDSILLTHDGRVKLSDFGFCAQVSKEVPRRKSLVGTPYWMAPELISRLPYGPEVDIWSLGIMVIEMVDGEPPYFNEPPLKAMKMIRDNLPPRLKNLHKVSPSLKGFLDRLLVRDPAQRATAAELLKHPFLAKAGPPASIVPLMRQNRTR
Chain of AURKB (Q96GD4 whole entry): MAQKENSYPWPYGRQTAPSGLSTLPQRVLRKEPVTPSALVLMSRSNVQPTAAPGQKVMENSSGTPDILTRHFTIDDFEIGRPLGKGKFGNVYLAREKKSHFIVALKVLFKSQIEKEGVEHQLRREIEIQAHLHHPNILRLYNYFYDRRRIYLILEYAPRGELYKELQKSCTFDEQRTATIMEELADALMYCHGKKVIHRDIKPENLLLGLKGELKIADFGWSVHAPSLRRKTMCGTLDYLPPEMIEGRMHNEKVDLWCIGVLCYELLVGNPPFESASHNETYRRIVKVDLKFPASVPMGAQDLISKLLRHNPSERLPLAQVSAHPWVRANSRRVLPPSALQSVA
Chain of NUAK1 (O60285 whole entry): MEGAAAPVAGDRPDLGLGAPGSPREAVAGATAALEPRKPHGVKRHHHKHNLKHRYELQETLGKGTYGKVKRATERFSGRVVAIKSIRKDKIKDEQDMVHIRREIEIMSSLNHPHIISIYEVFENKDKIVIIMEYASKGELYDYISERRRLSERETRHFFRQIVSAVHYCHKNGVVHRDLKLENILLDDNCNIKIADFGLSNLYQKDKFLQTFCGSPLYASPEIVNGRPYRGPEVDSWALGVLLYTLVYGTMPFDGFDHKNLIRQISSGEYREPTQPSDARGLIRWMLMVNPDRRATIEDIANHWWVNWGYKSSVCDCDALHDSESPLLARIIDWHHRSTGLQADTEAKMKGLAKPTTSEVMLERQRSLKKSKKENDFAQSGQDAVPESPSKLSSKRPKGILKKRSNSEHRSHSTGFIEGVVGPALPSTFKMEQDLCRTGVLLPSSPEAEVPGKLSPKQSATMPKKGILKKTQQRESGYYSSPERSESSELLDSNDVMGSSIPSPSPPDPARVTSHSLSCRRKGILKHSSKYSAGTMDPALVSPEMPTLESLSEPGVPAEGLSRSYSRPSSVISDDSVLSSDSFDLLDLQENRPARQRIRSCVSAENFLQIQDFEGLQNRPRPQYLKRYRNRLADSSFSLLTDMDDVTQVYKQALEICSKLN
T2 sequence (P04150 whole entry): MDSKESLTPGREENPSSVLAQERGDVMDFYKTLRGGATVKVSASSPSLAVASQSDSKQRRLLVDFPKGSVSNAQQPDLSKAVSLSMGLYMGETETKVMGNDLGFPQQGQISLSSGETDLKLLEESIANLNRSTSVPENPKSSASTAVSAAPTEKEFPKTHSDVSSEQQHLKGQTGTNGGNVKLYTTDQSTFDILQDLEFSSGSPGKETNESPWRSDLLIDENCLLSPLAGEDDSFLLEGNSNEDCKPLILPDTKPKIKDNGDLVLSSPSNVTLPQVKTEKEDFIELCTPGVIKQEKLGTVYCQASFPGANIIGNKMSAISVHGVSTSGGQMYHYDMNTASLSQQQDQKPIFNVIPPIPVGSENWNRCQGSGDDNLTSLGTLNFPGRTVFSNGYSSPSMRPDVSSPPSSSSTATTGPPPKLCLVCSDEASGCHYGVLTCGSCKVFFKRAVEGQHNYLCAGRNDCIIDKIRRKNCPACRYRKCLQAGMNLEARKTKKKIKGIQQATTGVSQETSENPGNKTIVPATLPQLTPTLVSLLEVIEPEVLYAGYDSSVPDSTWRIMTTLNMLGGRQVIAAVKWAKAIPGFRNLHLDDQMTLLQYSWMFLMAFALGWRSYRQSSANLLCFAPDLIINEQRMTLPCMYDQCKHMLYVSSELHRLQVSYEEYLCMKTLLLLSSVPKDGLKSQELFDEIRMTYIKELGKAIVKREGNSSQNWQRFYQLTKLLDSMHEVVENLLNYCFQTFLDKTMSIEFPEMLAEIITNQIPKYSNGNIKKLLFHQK
T5 sequence (P31645 whole entry): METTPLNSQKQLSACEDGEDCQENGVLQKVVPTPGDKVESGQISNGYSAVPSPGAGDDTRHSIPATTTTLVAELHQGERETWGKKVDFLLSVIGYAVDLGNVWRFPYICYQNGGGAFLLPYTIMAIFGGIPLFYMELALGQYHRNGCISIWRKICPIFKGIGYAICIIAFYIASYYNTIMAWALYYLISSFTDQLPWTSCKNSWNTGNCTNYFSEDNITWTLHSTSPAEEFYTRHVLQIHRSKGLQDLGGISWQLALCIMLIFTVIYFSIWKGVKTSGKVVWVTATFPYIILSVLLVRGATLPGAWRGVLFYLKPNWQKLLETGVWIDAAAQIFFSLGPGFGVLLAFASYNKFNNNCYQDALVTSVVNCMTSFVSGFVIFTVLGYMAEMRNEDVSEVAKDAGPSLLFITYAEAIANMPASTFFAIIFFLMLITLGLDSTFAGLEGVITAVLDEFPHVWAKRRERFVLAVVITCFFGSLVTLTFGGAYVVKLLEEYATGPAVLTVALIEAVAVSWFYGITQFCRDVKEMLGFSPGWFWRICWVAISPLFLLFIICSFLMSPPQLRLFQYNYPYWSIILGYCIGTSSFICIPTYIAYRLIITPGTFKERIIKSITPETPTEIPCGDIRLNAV

For the molecule `O=C(O)c1sc2cc(F)sc2c1Cl` [PF-07208254, 3-chloro-5-fluorothieno[3,2-b]thiophene-2-carboxylic acid], the “% Inhibition (binding) PF-07208254” value on Choline Transporter (100 µM) was -15%; at Glucocorticoid Receptor (100 µM), 4%; in assay [1] (100 µM), -6%; at PPAR-gamma [2] (100 µM) it was 62%; on Serotonin Transporter (100 µM), -3%. On PPAR-gamma [3], this molecule came in with an IC50 of 86 µM. Further, the “ATP = 1 mM % Inhibition PF-07208254” value on AURKA is listed as -2.6%; in assay [4] it was -7.2%; on NTRK1 it was 5.8%; at PAK4, 0.9%; on PRKACA it was -2.4%; at STK3 it was -2.3%. In addition, the “ATP = Km % Inhibition PF-07208254” value is 9.4% at AURKA; 3.0% on AURKB; -0.9% in assay [4]; 5.6% at NTRK1; 10.3% at NUAK1; 6.0% on PAK4. Further, the figures for the “ATP = Km % Inhibition PF-07208254” value on PRKACA and on STK3 were 2.7% and 5.5%, respectively. The “ATP = 10 uM % Inhibition PF-07208254” value on PIK3C2B is given as 3.5%.

For the molecule `CCC1(COc2ccc(-c3csc(-c4ccccc4C(=O)O)n3)cn2)CC1` [PF-07247685, 2-(4-{6-[(1-ethylcyclopropyl)methoxy]pyridin-3-yl}-1,3-thiazol-2-yl)benzoic acid], the “% Inhibition (binding) PF-07247685” value on Choline Transporter (10 µM) is recorded as -12%; at Glucocorticoid Receptor (10 µM), 0%; in assay [1] (10 µM), -4%; on PPAR-gamma [2] (10 µM), 21%; on Serotonin Transporter (10 µM) it was 2%. Further, at PPAR-gamma [3] (read-out: IC50 binding PF-07247685), the IC50 is 50 µM. The “ATP = 1 mM % Inhibition PF-07247685” value at AURKA is reported as 2.2%; in [4], 1.2%; on NTRK1 it was 10.0%; at PAK4 it was 3.7%; at PRKACA it was 0.3%; at STK3, -7.6%. Further, the “ATP = Km % Inhibition PF-07247685” value is 8.9% on AURKA; 17.3% at AURKB; -2.6% in [4]; 14.5% at NTRK1; -18.2% on NUAK1; 8.3% on PAK4. For the same molecule, the “ATP = Km % Inhibition PF-07247685” value on PRKACA is reported as 2.3%; at STK3, -1.8%. For the same molecule, the “ATP = 10 uM % Inhibition PF-07247685” value on PIK3C2B came out at 2.0%.
